Results reported in ChEMBL document CHEMBL4229524, “Design, synthesis and preclinical evaluation of 5-methyl-N4-aryl-furo[2,3-d]pyrimidines as single agents with combination chemotherapy potential” (Bioorg Med Chem Lett, 2018).
Calls of active or inactive are those of the source. The rule behind the calls is not given here.

How the values were obtained:
[1] = target: Epidermal growth factor receptor (Homo sapiens, UniProt P00533); assay type: cell-based
[2] = target: T1, Vascular endothelial growth factor receptor 2 (Homo sapiens, UniProt P35968); assay type: cell-based
T1 sequence (P35968 whole entry): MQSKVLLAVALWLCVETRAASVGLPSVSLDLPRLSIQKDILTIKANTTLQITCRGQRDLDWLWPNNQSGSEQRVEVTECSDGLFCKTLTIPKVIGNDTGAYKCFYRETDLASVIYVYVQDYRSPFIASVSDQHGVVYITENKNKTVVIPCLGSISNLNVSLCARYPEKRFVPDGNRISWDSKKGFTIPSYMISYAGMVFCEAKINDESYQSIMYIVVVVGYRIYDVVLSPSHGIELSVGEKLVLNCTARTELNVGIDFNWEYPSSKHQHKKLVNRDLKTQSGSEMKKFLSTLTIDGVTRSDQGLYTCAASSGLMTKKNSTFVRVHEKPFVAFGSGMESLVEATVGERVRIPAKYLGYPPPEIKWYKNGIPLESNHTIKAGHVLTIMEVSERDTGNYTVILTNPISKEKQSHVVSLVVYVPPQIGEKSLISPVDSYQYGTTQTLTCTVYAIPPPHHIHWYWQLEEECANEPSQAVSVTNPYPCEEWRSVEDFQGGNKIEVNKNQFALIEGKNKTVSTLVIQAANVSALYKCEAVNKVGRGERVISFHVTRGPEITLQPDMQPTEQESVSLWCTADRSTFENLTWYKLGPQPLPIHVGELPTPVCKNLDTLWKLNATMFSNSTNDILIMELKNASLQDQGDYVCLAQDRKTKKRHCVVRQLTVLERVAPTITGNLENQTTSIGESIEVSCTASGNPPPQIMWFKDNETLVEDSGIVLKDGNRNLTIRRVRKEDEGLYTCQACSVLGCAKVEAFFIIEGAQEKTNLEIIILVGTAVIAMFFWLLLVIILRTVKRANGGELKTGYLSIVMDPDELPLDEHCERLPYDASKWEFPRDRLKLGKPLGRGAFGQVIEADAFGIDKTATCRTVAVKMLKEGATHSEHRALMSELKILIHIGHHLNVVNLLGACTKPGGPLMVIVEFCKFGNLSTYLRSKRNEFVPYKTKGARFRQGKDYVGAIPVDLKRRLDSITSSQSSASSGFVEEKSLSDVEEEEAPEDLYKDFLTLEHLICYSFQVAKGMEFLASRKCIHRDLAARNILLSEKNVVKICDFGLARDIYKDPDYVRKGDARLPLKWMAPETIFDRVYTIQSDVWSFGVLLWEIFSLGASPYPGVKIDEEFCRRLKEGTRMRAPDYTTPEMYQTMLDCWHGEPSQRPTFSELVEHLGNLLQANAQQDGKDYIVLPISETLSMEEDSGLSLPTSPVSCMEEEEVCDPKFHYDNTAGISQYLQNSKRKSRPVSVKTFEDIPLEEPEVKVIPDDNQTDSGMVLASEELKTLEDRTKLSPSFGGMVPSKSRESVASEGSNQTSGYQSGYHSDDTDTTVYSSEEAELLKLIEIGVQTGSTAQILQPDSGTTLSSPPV

[3] = target: T2, Platelet-derived growth factor receptor beta (Homo sapiens, UniProt P09619); test: Inhibition of PDGF-BB-induced PDGFRbeta activation in human SH-SY5Y cells pretreated for 60 mins followed by PDGF-BB addition and measured after 10 mins by ELISA; assay type: cell-based
T2 sequence (P09619 whole entry): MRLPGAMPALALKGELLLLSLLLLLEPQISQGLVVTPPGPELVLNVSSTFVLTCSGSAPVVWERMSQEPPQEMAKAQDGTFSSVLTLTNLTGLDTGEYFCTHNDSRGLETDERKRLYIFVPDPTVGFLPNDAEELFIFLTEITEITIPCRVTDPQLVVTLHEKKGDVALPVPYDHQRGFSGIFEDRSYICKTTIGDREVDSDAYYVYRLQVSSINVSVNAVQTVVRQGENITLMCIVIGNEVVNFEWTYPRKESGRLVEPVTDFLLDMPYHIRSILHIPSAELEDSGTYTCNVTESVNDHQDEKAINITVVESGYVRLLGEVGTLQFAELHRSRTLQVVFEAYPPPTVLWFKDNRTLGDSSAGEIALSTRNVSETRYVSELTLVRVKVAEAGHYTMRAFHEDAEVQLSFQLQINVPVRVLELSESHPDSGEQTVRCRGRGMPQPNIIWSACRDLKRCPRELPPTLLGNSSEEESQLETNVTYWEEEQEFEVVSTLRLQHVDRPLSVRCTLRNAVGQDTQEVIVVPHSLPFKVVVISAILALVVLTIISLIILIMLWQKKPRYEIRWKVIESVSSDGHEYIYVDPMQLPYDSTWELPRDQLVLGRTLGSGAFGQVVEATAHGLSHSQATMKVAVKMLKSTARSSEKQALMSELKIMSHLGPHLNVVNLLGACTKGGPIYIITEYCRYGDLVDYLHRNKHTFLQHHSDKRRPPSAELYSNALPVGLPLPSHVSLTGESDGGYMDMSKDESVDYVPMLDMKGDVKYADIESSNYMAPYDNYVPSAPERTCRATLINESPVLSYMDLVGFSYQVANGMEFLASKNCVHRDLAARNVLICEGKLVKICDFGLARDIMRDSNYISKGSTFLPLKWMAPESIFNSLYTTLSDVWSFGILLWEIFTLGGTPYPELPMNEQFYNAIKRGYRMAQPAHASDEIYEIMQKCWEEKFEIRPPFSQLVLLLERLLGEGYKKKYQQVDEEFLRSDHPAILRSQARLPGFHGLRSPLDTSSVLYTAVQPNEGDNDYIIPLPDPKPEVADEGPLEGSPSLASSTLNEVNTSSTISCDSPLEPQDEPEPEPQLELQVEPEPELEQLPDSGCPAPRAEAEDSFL

[4] = system: A-431; test: Cytotoxicity against human A431 cells over-expressing EGFR; assay type: functional, cell-based
[5] = system: Chorioallantoic membrane; test: Antiangiogenic activity in Leghorn chicken embryo chorioallantoic membrane after 40 hrs by microscopic analysis; assay type: functional, tissue-based; conditions: Gallus gallus
[6] = system: A10; test: Induction of microtubule depolymerization in rat A10 cells after 18 hrs by indirect immunofluorescence method; assay type: functional, cell-based; conditions: A10, 18 h
[7] = system: Chorioallantoic membrane; test: Potency index, ratio of sunitinib IC50 to test compound IC50 for antiangiogenic activity in Leghorn chicken embryo chorioallantoic membrane; assay type: functional, tissue-based; conditions: Gallus gallus
[8] = target: T1, Vascular endothelial growth factor receptor 2; test: Potency index, ratio of sunitinib IC50 to test compound IC50 for VEGF-induced VEGFR2 activation in human U251 cells; assay type: cell-based
[9] = target: T2, Platelet-derived growth factor receptor beta; test: Potency index, ratio of sunitinib IC50 to test compound IC50 for PDGF-BB-induced PDGFRbeta activation in human SH-SY5Y cells; assay type: cell-based
[10] = system: Mus musculus; test: Toxicity in athymic nude mouse assessed as survival at 12.5 to 50 mg/kg, po administered as single dose; assay type: organism-based; conditions: in vivo
[11] = system: Mus musculus; test: Toxicity in athymic nude mouse assessed as death at 100 mg/kg, po administered as single dose measured after 4 days; assay type: organism-based; conditions: in vivo, 96 h
[12] = system: Mus musculus; test: Toxicity in athymic nude mouse assessed as death at 250 to 500 mg/kg, po administered as single dose measured after 1 day; assay type: organism-based; conditions: in vivo, 24 h
[13] = system: A498; test: Antitumor activity against human A498 cells xenografted in athymic nude mouse assessed as reduction in tumor volume at 25 mg/kg, ip qd for 19 days measured post last dose up to 40 days; assay type: functional; parameters: scale not given: the % may be the effect or the level left
[14] = system: A498; test: Antitumor activity against human A498 cells xenografted in athymic nude mouse assessed as reduction in tumor volume at 25 mg/kg, ip q2d for 19 days measured post last dose up to 40 days; assay type: functional; parameters: scale not given: the % may be the effect or the level left
[15] = system: A498; test: Antitumor activity against human A498 cells xenografted in athymic nude mouse assessed as reduction in tumor volume at 25 mg/kg, ip q3d for 19 days measured post last dose up to 40 days; assay type: functional; parameters: scale not given: the % may be the effect or the level left
[16] = system: Mus musculus; test: Toxicity in athymic nude mouse xenografted with human A498 cells assessed as body weight at 25 mg/kg, ip qd for 19 days measured post last dose relative to control; assay type: organism-based; conditions: in vivo, 456 h
[17] = system: Mus musculus; test: Toxicity in athymic nude mouse xenografted with human A498 cells assessed as body weight at 25 mg/kg, ip q2d for 19 days measured post last dose relative to control; assay type: organism-based; conditions: in vivo, 456 h
[18] = system: Mus musculus; test: Toxicity in athymic nude mouse xenografted with human A498 cells assessed as body weight at 25 mg/kg, ip q3d for 19 days measured post last dose relative to control; assay type: organism-based; conditions: in vivo, 456 h
[19] = system: NCI-H522; test: Antitumor activity against human NCI-H522 cells xenografted in athymic nude mouse; assay type: functional, cell-based
[20] = system: COLO 205; test: Antitumor activity against human COLO205 cells xenografted in athymic nude mouse; assay type: functional, cell-based
[21] = system: NCI-H23; test: Antitumor activity against human NCI-H23 cells xenografted in sc dosed mouse assessed as reduction in cell viability administered daily for 4 days starting from 3 to 4 days post implantation measured post last dose by MTT based in-vivo hollow fiber assay; assay type: functional, organism-based
[22] = system: NCI-H522; test: Antitumor activity against human NCI-H522 cells xenografted in sc dosed mouse assessed as reduction in cell viability administered daily for 4 days starting from 3 to 4 days post implantation measured post last dose by MTT based in-vivo hollow fiber assay; assay type: functional, organism-based
[23] = system: MDA-MB-231; test: Antitumor activity against human MDA-MB-231 cells xenografted in sc dosed mouse assessed as reduction in cell viability administered daily for 4 days starting from 3 to 4 days post implantation measured post last dose by MTT based in-vivo hollow fiber assay; assay type: functional, organism-based
[24] = system: SW-620; test: Antitumor activity against human SW620 cells xenografted in sc dosed mouse assessed as reduction in cell viability administered daily for 4 days starting from 3 to 4 days post implantation measured post last dose by MTT based in-vivo hollow fiber assay; assay type: functional, organism-based
[25] = system: COLO 205; test: Antitumor activity against human COLO205 cells xenografted in sc dosed mouse assessed as reduction in cell viability administered daily for 4 days starting from 3 to 4 days post implantation measured post last dose by MTT based in-vivo hollow fiber assay; assay type: functional, organism-based
[26] = system: MDA-MB-435; test: Antitumor activity against human MDA-MB-435 cells xenografted in sc dosed mouse assessed as reduction in cell viability administered daily for 4 days starting from 3 to 4 days post implantation measured post last dose by MTT based in-vivo hollow fiber assay; assay type: functional, organism-based
[27] = system: Homo sapiens; test: Antitumor activity against human LOX cells xenografted in sc dosed mouse assessed as reduction in cell viability administered daily for 4 days starting from 3 to 4 days post implantation measured post last dose by MTT based in-vivo hollow fiber assay; assay type: functional, organism-based
[28] = system: UACC-62; test: Antitumor activity against human UACC62 cells xenografted in sc dosed mouse assessed as reduction in cell viability administered daily for 4 days starting from 3 to 4 days post implantation measured post last dose by MTT based in-vivo hollow fiber assay; assay type: functional, organism-based
[29] = system: OVCAR-3; test: Antitumor activity against human OVCAR3 cells xenografted in sc dosed mouse assessed as reduction in cell viability administered daily for 4 days starting from 3 to 4 days post implantation measured post last dose by MTT based in-vivo hollow fiber assay; assay type: functional, organism-based
[30] = system: OVCAR-5; test: Antitumor activity against human OVCAR5 cells xenografted in sc dosed mouse assessed as reduction in cell viability administered daily for 4 days starting from 3 to 4 days post implantation measured post last dose by MTT based in-vivo hollow fiber assay; assay type: functional, organism-based
[31] = system: U-251; test: Antitumor activity against human U251 cells xenografted in sc dosed mouse assessed as reduction in cell viability administered daily for 4 days starting from 3 to 4 days post implantation measured post last dose by MTT based in-vivo hollow fiber assay; assay type: functional, organism-based
[32] = system: SF-295; test: Antitumor activity against human SF295 cells xenografted in sc dosed mouse assessed as reduction in cell viability administered daily for 4 days starting from 3 to 4 days post implantation measured post last dose by MTT based in-vivo hollow fiber assay; assay type: functional, organism-based
[33] = system: NCI-H23; test: Antitumor activity against human NCI-H23 cells xenografted in ip dosed mouse assessed as reduction in cell viability administered daily for 4 days starting from 3 to 4 days post implantation measured post last dose by MTT based in-vivo hollow fiber assay; assay type: functional, organism-based
[34] = system: NCI-H522; test: Antitumor activity against human NCI-H522 cells xenografted in ip dosed mouse assessed as reduction in cell viability administered daily for 4 days starting from 3 to 4 days post implantation measured post last dose by MTT based in-vivo hollow fiber assay; assay type: functional, organism-based
[35] = system: MDA-MB-231; test: Antitumor activity against human MDA-MB-231 cells xenografted in ip dosed mouse assessed as reduction in cell viability administered daily for 4 days starting from 3 to 4 days post implantation measured post last dose by MTT based in-vivo hollow fiber assay; assay type: functional, organism-based
[36] = system: SW-620; test: Antitumor activity against human SW620 cells xenografted in ip dosed mouse assessed as reduction in cell viability administered daily for 4 days starting from 3 to 4 days post implantation measured post last dose by MTT based in-vivo hollow fiber assay; assay type: functional, organism-based
[37] = system: COLO 205; test: Antitumor activity against human COLO205 cells xenografted in ip dosed mouse assessed as reduction in cell viability administered daily for 4 days starting from 3 to 4 days post implantation measured post last dose by MTT based in-vivo hollow fiber assay; assay type: functional, organism-based
[38] = system: MDA-MB-435; test: Antitumor activity against human MDA-MB-435 cells xenografted in ip dosed mouse assessed as reduction in cell viability administered daily for 4 days starting from 3 to 4 days post implantation measured post last dose by MTT based in-vivo hollow fiber assay; assay type: functional, organism-based
[39] = system: Homo sapiens; test: Antitumor activity against human LOX cells xenografted in ip dosed mouse assessed as reduction in cell viability administered daily for 4 days starting from 3 to 4 days post implantation measured post last dose by MTT based in-vivo hollow fiber assay; assay type: functional, organism-based
[40] = system: UACC-62; test: Antitumor activity against human UACC62 cells xenografted in ip dosed mouse assessed as reduction in cell viability administered daily for 4 days starting from 3 to 4 days post implantation measured post last dose by MTT based in-vivo hollow fiber assay; assay type: functional, organism-based
[41] = system: OVCAR-3; test: Antitumor activity against human OVCAR3 cells xenografted in ip dosed mouse assessed as reduction in cell viability administered daily for 4 days starting from 3 to 4 days post implantation measured post last dose by MTT based in-vivo hollow fiber assay; assay type: functional, organism-based
[42] = system: OVCAR-5; test: Antitumor activity against human OVCAR5 cells xenografted in ip dosed mouse assessed as reduction in cell viability administered daily for 4 days starting from 3 to 4 days post implantation measured post last dose by MTT based in-vivo hollow fiber assay; assay type: functional, organism-based
[43] = system: U-251; test: Antitumor activity against human U251 cells xenografted in ip dosed mouse assessed as reduction in cell viability administered daily for 4 days starting from 3 to 4 days post implantation measured post last dose by MTT based in-vivo hollow fiber assay; assay type: functional, organism-based
[44] = system: SF-295; test: Antitumor activity against human SF295 cells xenografted in ip dosed mouse assessed as reduction in cell viability administered daily for 4 days starting from 3 to 4 days post implantation measured post last dose by MTT based in-vivo hollow fiber assay; assay type: functional, organism-based

Chain of Epidermal growth factor receptor (P00533 whole entry): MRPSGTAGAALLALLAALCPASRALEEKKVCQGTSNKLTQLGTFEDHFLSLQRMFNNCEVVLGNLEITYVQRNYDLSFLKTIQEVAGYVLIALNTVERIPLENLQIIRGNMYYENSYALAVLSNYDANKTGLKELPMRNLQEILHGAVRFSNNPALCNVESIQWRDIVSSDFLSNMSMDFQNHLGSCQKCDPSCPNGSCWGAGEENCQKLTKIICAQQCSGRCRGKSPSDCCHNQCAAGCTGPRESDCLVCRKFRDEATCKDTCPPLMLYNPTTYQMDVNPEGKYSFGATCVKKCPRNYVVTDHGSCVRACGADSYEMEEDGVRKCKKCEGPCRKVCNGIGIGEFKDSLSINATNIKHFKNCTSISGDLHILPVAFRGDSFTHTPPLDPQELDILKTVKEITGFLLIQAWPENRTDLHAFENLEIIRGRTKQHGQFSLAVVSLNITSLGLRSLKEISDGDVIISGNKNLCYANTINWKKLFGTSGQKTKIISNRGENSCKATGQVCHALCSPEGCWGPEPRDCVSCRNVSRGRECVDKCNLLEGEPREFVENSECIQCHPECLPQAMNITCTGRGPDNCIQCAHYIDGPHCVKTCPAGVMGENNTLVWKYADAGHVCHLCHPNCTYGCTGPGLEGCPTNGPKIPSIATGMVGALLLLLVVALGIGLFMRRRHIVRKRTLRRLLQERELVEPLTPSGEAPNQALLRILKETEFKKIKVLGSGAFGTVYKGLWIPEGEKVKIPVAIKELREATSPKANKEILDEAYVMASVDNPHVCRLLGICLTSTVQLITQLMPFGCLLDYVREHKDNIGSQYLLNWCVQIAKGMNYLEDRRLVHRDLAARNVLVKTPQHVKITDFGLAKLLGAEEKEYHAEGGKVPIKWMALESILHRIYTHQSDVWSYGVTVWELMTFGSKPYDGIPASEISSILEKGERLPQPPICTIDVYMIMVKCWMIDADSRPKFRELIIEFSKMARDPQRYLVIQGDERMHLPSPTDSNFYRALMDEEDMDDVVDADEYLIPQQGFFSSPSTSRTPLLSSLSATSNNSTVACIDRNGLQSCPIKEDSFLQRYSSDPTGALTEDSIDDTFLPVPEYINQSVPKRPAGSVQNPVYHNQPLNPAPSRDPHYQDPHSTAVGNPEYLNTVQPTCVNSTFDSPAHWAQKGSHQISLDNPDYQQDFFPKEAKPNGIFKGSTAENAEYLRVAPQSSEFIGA

## CCN(c1ccc(OC)cc1)c1ncnc2occ(C)c12
[1]
  IC50: 92.5 nM
[2]
  IC50: 67.3 nM
[3]
  IC50: 51.4 nM
[4]
  IC50: 3.4 nM
[5]
  IC50: 812 nM

## Cc1coc2ncnc(Nc3ccc([N+](=O)[O-])cc3)c12
[1]
  IC50: > 200 nM
[2]
  IC50: > 200 nM
[3]
  IC50: > 200 nM
[6]
  EC50: > 10000 nM

## CNc1ccc(Nc2ncnc3occ(C)c23)cc1
[1]
  IC50: > 200 nM
[2]
  IC50: > 200 nM
[3]
  IC50: > 200 nM
[6]
  EC50: > 10000 nM

## Cc1coc2ncnc(N(C)c3ccc([N+](=O)[O-])cc3)c12
[1]
  IC50: > 200 nM
[2]
  IC50: > 200 nM
[3]
  IC50: > 200 nM
[4]
  IC50: 433 nM
[5]
  IC50: 1060 nM
[6]
  EC50: > 10000 nM

## CCCN(c1ccc(OC)cc1)c1ncnc2occ(C)c12
[1]
  IC50: 7.1 nM
[2]
  IC50: 12 nM
[3]
  IC50: 38.9 nM
[4]
  IC50: 2.3 nM
[5]
  IC50: 301 nM
[7]
  Ratio IC50: 4

## COc1ccc(N(C)c2ncnc3occ(C)c23)cc1
[1]
  IC50: 15.5 nM
[2]
  IC50: 9.3 nM
[3]
  IC50: 12.3 nM
[4]
  IC50: 5.1 nM
[5]
  IC50: 80 nM
[8]
  Ratio IC50: 2
[9]
  Ratio IC50: 7
[10]
  MSD: 15 days
[11]
  Activity: Toxic
[12]
  Activity: Toxic
[13]
  Activity: 25 - 50%
[14]
  Activity: 25 - 50%
[15]
  Activity: 25 - 50%
[16]
  T/C: 47%
[17]
  T/C: 38%
[18]
  T/C: 71%
[19]
  Activity: inactive
[20]
  Activity: inactive
[21]
  Activity: Active
[22]
  Activity: Active
[23]
  Activity: Active
[24]
  Activity: Active
[25]
  Activity: Active
[26]
  Activity: Active
[27]
  Activity: Active
[28]
  Activity: Active
[29]
  Activity: Active
[30]
  Activity: Active
[31]
  Activity: Active
[32]
  Activity: Active
[33]
  Activity: Active
[34]
  Activity: Active
[35]
  Activity: Active
[36]
  Activity: Active
[37]
  Activity: Active
[38]
  Activity: Active
[39]
  Activity: Active
[40]
  Activity: Active
[41]
  Activity: Active
[42]
  Activity: Active
[43]
  Activity: Active
[44]
  Activity: Active

## COc1ccc(Nc2ncnc3occ(C)c23)cc1
[1]
  IC50: 283 nM
[2]
  IC50: 38.1 nM
[3]
  IC50: 57.3 nM
[4]
  IC50: 292 nM
[5]
  IC50: 445 nM
